The results in this text go back to ChEMBL document CHEMBL3867466, “Synthesis and biological evaluation of novel 2,4,5-triarylimidazole-1,2,3-triazole derivatives via click chemistry as α-glucosidase inhibitors” (Bioorg Med Chem Lett, 2016).

As a reminder, the Ki is the dissociation constant of the complex between target and ligand, obtained from inhibition or displacement. A low value points to tighter binding. The IC50 is the point on the concentration scale where inhibition reaches its midpoint.

For the first assay, the target named is T1, Alpha-glucosidase MAL12 (Saccharomyces cerevisiae S288c, UniProt P53341). As to the kind of experiment: Non-competitive inhibition of bakers yeast alpha-glucosidase using p-nitrophenyl-alpha-D-glucopyranoside as substrate by Lineweaver-Burk plot analysis.
T1 sequence (P53341 whole entry): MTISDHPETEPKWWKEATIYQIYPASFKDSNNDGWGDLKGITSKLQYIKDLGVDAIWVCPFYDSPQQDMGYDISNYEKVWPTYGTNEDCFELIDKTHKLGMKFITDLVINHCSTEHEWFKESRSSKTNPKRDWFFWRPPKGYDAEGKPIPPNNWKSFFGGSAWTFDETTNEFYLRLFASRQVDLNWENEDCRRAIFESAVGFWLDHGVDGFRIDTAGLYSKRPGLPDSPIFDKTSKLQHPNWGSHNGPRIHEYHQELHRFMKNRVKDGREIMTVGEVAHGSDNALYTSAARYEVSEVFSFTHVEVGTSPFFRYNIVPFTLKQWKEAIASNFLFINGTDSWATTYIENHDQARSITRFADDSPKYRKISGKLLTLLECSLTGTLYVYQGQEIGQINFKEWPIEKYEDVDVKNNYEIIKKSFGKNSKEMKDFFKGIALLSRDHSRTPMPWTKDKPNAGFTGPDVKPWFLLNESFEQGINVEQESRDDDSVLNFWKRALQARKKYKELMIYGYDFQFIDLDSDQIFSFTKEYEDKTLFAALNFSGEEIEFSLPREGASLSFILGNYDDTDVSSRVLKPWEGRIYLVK
With `CCOc1ccccc1NC(=O)Cn1cc(Cn2c(-c3cccc(Br)c3)nc(-c3ccccc3)c2-c2ccccc2)nn1`, the Ki was determined as 14.8 µM.

A further assay has as its target T1, Alpha-glucosidase MAL12. Briefly: Inhibition of bakers yeast alpha-glucosidase using p-nitrophenyl-alpha-D-glucopyranoside as substrate incubated for 15 mins followed by substrate addition measured after 30 mins by spectrophotometric analysis.
With `COc1ccc(NC(=O)Cn2cc(Cn3c(-c4cccs4)nc(-c4ccccc4)c3-c3ccccc3)nn2)cc1`, inhibition was half-maximal at 24.2 µM (IC50).

For the molecule `Cc1ccc(NC(=O)Cn2cc(Cn3c(-c4cccc(Cl)c4)nc(-c4ccccc4)c3-c3ccccc3)nn2)c(C)c1`, the midpoint of inhibition, the IC50, lay at 38.5 µM.

The molecule `CCOc1ccccc1NC(=O)Cn1cc(Cn2c(-c3ccccc3F)nc(-c3ccccc3)c2-c2ccccc2)nn1` returned an IC50 of 36.9 µM.

Turning to `CCOc1ccccc1NC(=O)Cn1cc(Cn2c(-c3cccc(Br)c3)nc(-c3ccccc3)c2-c2ccccc2)nn1`, the IC50 amounted to 15.2 µM.

As to `CCOc1ccc(NC(=O)Cn2cc(Cn3c(-c4cccc(Br)c4)nc(-c4ccccc4)c3-c3ccccc3)nn2)cc1`, the IC50 was 19.6 µM.

On to `Cc1ccccc1NC(=O)Cn1cc(Cn2c(-c3cccc(F)c3)nc(-c3ccccc3)c2-c2ccccc2)nn1`, for which the IC50 came to 32.1 µM.

As for `COc1ccc(NC(=O)Cn2cc(Cn3c(-c4cccc(Cl)c4)nc(-c4ccccc4)c3-c3ccccc3)nn2)cc1`, the IC50 is 48.2 µM.

For the molecule `Cc1ccc(NC(=O)Cn2cc(Cn3c(-c4cccc(F)c4)nc(-c4ccccc4)c3-c3ccccc3)nn2)c(C)c1`, inhibition was half-maximal at 30.1 µM (IC50).

In turn, `COc1ccccc1-c1nc(-c2ccccc2)c(-c2ccccc2)n1Cc1cn(CC(=O)Nc2ccc(C)cc2)nn1` displayed an IC50 of 27 µM.

As for `O=C(Cn1cc(Cn2c(-c3ccc(Br)cc3)nc(-c3ccccc3)c2-c2ccccc2)nn1)Nc1ccc(F)cc1`, half-maximal inhibition (IC50) was put at 22 µM.

In turn, `O=C(Cn1cc(Cn2c(-c3ccc(F)cc3)nc(-c3ccccc3)c2-c2ccccc2)nn1)Nc1ccc(Cl)cc1Cl` yielded a half-inhibitory concentration (IC50) of 22.8 µM.

For the molecule `COC(=O)c1ccc(-c2nc(-c3ccccc3)c(-c3ccccc3)n2Cc2cn(CC(=O)Nc3cc(Cl)ccc3Cl)nn2)cc1`, the IC50 is 20.2 µM.

The molecule `COc1cc(-c2nc(-c3ccccc3)c(-c3ccccc3)n2Cc2cn(CC(=O)Nc3ccc(Cl)cc3)nn2)cc(OC)c1OC` showed an IC50 of 29.2 µM.

The molecule `Cc1ccccc1NC(=O)Cn1cc(Cn2c(-c3ccc(Br)cc3)nc(-c3ccccc3)c2-c2ccccc2)nn1` showed a concentration for half-maximal inhibition (IC50) of 29.3 µM.

In turn, `CCOc1ccc(NC(=O)Cn2cc(Cn3c(-c4ccc(C(=O)OC)cc4)nc(-c4ccccc4)c3-c3ccccc3)nn2)cc1` registered an IC50 of 17 µM.

On to `COc1ccc(-c2nc(-c3ccccc3)c(-c3ccccc3)n2Cc2cn(CC(=O)Nc3ccc(Cl)cc3Cl)nn2)cc1OC`, for which the IC50 came out at 21.6 µM.

As for `COc1cc(-c2nc(-c3ccccc3)c(-c3ccccc3)n2Cc2cn(CC(=O)Nc3cccc(C)c3)nn2)cc(OC)c1OC`, the midpoint of inhibition, the IC50, lay at 20.3 µM.

Turning to `CCOc1ccc(NC(=O)Cn2cc(Cn3c(-c4cccc(Cl)c4)nc(-c4ccccc4)c3-c3ccccc3)nn2)cc1`, inhibition was half-maximal at 44.2 µM (IC50).
